Assay results as given in patent US12606529B2, “Sulfur and amide tropolone inhibitors of nucleotidyl transferases and uses therefor” (Saint Louis University, priority 2019, dated 2026).
Values after ≈ are worked out from the molar mass of the structure shown.

Experiments:
[1] = test system: C. neoformans var. grubii, KN99; test: C. neoformans growth inhibition assay (limiting dilution); assay type: cell-based, Cryptococcus neoformans; settings: Cryptococcus neoformans, 48 h, Table 2 amides; 48 h, 35° C., tested 0.19 to 50 μM; read-out: C. neoformans MIC80
Experimental: Cell types used for C. neoformans studies. All inhibition assays were performed with C. neoformans var. grubii, KN99 (serotype A, MAT). Two clinical strains of C. neoformans var. grubii, serotype A, were provided by Tamara Doering and Andre Spec. […] Cells were diluted to OD650 0.001 in YNB-02 02 (0.67% yeast nitrogen base, 0.2% dextrose, pH 7.0 with 50 mM MOPs)+1% DMSO prior to addition to the plates for the inhibition assays.
C. neoformans growth inhibition assays. Compounds were tested in a limiting dilution assay with a starting optical density (at 650 nm) of 0.001 in YNB-02 plus 1% DMSO. Cells plus compound were incubated in 96-well clear round bottom plates covered with a Breath-easy® membrane without shaking for 48 hours at 35° C. Before measuring cell density, plates were shaken on a microtiter plate shaker at 900 rpm for 3 minutes to resuspend cells and optical density was measured at 650 nm. […] Each assay was done in triplicate and all values are the average of two or more independent assays. The data are presented as the average cell density as a percent of DMSO-only treated cells. MICs are reported as the minimal concentration needed to inhibit 80% of C. neoformans growth relative to vehicle-treated controls.

HSV-1 = test: Anti-HSV-1 replication assay (Vero cells, plaque titer); assay type: cell-based, herpes simplex virus 1; settings: Human alphaherpesvirus 1, Vero, Table 2 amides, values separated by / are repeats; for log reduction at 1 µM: compound at 1 μM, read-out: HSV-1 suppression 1 μM; for log reduction at 5 µM: compound at 5 μM, read-out: HSV-1 suppression 5 μM
in vitro = settings: human, HepDES19 cells
human RNaseH1 = target: T1, human RNaseH1 (Homo sapiens, UniProt O60930); test: Biochemical inhibition of human RNaseH1 activity; settings: Table 2 amides; read-out: HuRH1 IC50
T1 sequence (O60930 1-286): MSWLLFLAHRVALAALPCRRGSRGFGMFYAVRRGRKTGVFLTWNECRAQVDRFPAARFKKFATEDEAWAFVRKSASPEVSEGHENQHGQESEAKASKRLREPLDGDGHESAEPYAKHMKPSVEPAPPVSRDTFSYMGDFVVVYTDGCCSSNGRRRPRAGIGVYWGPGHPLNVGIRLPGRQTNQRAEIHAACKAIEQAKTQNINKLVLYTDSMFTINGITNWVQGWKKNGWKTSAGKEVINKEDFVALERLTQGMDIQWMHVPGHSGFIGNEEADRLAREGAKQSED
Experimental: Biochemical inhibition of human RNaseH1 activity. Quantitative inhibition of the human RNaseH1 in the biochemical assays was assessed using a molecular beacon assay as described previously (Edwards et al., 2017). Recombinant human RNaseH 1 (0.3 μg) was incubated with 100 nM RNA:DNA substrate, 50 mM HEPES pH 8.0, 100 mM NaCl, 2 mM Tris(2-carboxyethyl)phosphine hydrochloride (TCEP), 0.05% Tween20, 5 units of RNaseOut, test compounds (0 to 500 μM), and 5% DMSO in a 100 μL reaction volume. The substrate was formed by annealing a complementary RNA oligonucleotide to a hairpin DNA oligonucleotide to hold the hairpin DNA oligonucleotide in an open conformation. The DNA oligonucleotide has a 5′ fluorescein reporter and a 3′ black hole quencher. When the RNA is degraded from the substrate the DNA oligonucleotide closes to form a hairpin structure, decreasing in signal intensity. Reactions were initiated with 5 mM MgCl2 and fluorescence was read using a Synergy HTS multi-mode plate reader at 37° C. Alternatively, the HBV RNaseH version used was MBP-HRHgtCΔ5, a genotype C isolate which lacks the C-terminal 35 amino acids of the HBV RNaseH domain that are predicted to be unstructured. Quantitative inhibition of the human RNaseH1 in biochemical assays was assessed using a FRET-based RNaseH assay under conditions previously reported for an RNaseH molecular beacon assay (Edwards et al., 2017). […] Cleavage of the RNA strand released the fluorescein from quenching, increasing fluorescence. Reactions were monitored for 90 min at 37° C. in a plate reader and initial reaction rates were calculated. Reactions contained escalating concentrations of the compounds.

Row | SMILES | MIC80 [1] | log reduction at 1 µM (HSV-1) | log reduction at 5 µM (HSV-1) | CC50 at 24 h (in vitro; CC50 (μM), Table 2 amides, MTT) | IC50 (human RNaseH1) | CC50 at 24 h (in vitro; CC50)
1 | Cc1ccc(CNC(=O)c2cc(O)c(=O)c(O)cc2C)c(C)c1 [compound 809] | 3.3 µM (≈ 1.03 µg/mL) | 0.0278 | 4.69 | 5.8 ± 6.5 µM | 19.6 ± 20 µM | 
2 | Cc1cc(O)c(=O)c(O)cc1C(=O)NCC1CCCCN1C(=O)OC(C)(C)C (centres unmarked) [compound 810] | 4.5 µM (≈ 1.77 µg/mL) |  |  | 10.9 ± 11.2 µM | 41.5 ± 7.2 µM | 
3 | Cc1cc(O)c(=O)c(O)cc1C(=O)Nc1ccccc1Cc1ccccc1 [compound 834] | 9 µM (≈ 3.25 µg/mL) |  | 1.8 | 16.4 ± 11.2 µM | 37.2 ± 17.2 µM | 
4 | Cc1cc(O)c(=O)c(O)cc1C(=O)Nc1ccccc1OCc1ccccc1 [compound 835] | 4.5 µM (≈ 1.7 µg/mL) |  | 5.23 | 10.3 ± 5.2 µM | 725 ± 427 µM | 
5 | Cc1cc(O)c(=O)c(O)cc1C(=O)Nc1cccc(OCc2ccccc2)c1 [compound 836] | 4.5 µM (≈ 1.7 µg/mL) |  | 5.2 | 5.4 ± 3.5 µM | 606 ± 482 µM | 
6 | Cc1cc(O)c(=O)c(O)cc1C(=O)NC(CCC(=O)OC(C)(C)C)C(=O)OC(C)(C)C (centres unmarked) [compound 867] | 4.3 µM (≈ 1.88 µg/mL) |  | 3.49 | 5.2 ± 1.3 µM | 675 ± 563 µM | 
7 | Cc1cc(O)c(=O)c(O)cc1C(=O)NC(CCC(=O)O)C(=O)O (centres unmarked) [compound 868] | 50 µM (≈ 16.3 µg/mL) | -0.15 | 0.0414 | 100 µM | 27.7 ± 20.3 µM | 100 µM
8 | Cc1cc(O)c(=O)c(O)cc1C(=O)NC(CCCCNC(=O)OC(C)(C)C)C(=O)OC(C)(C)C (centres unmarked) [compound 869] | 9 µM (≈ 4.33 µg/mL) |  | -0.147 | 14.6 ± 3.4 µM | 602 ± 273 µM | 
9 | Cc1cc(O)c(=O)c(O)cc1C(=O)NC(CC(C)C)C(=O)OC(C)(C)C (centres unmarked) [compound 870] | 5 µM (≈ 1.83 µg/mL) |  | 0.811 | 9.1 ± 2.7 µM | 289 ± 296 µM | 
10 | Cc1cc(O)c(=O)c(O)cc1C(=O)N1CCN(C(=O)C2CCCCC2)CC1 [compound 872] | 20 µM (≈ 7.49 µg/mL) | -0.158 | 0.643 | 14.4 ± 3.7 µM | 93 ± 53.3 µM | 
11 | Cc1cc(O)c(=O)c(O)cc1C(=O)N1CCN(C(=O)OC(C)(C)C)CC1 [compound 873] | 20 µM (≈ 7.29 µg/mL) | -0.148 | 0.2 | 19.5 ± 8.7 µM | 74.7 ± 23.1 µM | 
12 | Cc1cc(O)c(=O)c(O)cc1C(=O)N1CCN(S(=O)(=O)c2ccsc2)CC1 [compound 917] | 50 µM (≈ 20.5 µg/mL) |  |  | 8.9 ± 4.1 µM | 30.7 ± 15.8 µM | 
13 | Cc1cc(O)c(=O)c(O)cc1C(=O)N1CCN(c2ccc(C(F)(F)F)cc2)CC1 [compound 919] | 2.5 µM (≈ 1.02 µg/mL) |  |  | 5.5 ± 1.9 µM |  | 
14 | Cc1cc(O)c(=O)c(O)cc1C(=O)N1CCN(C(=O)c2ccc([N+](=O)[O-])c3nonc23)CC1 [compound 920] | 50 µM (≈ 22.8 µg/mL) |  |  | 19.3 ± 14.6 µM | 40.2 ± 39.7 µM | 
15 | Cc1cc(O)c(=O)c(O)cc1C(=O)NCC1CCOC1 (centres unmarked) [compound 1018] | 50 µM (≈ 14 µg/mL) |  |  | 41.2 ± 33.4 µM | 129 ± 123 µM | 
16 | Cc1cc(O)c(=O)c(O)cc1C(=O)NCc1ccc(N2CCCC2)cc1 [compound 1019] | 4.5 µM (≈ 1.59 µg/mL) |  |  | 10.7 ± 6 µM | 383 ± 471 µM | 
17 | Cc1cc(O)c(=O)c(O)cc1C(=O)N1CCN(C(=O)N(c2ccccc2)c2ccccc2)CC1 [compound 1020] | 8 µM (≈ 3.68 µg/mL) |  |  | 7.8 ± 3.7 µM | 12.9 ± 7.3 µM | 
18 | CCCCNC(=O)c1cc(O)c(=O)c(O)cc1C [compound 1039] | 12 µM (≈ 3.02 µg/mL) |  |  | 8.7 ± 2.8 µM | 219 ± 87.6 µM | 
